Molecular target: T184C MMP12 catalytic domain (Mus musculus, UniProt P34960, T184C)
Test: Gel labeling of recombinant enzyme spiked in rat liver lysates
Assay type: binding
Conditions: 10 μM pretreatment before TND124, rat liver lysates

Chain of T184C MMP12 catalytic domain (P34960 29-267 T184C): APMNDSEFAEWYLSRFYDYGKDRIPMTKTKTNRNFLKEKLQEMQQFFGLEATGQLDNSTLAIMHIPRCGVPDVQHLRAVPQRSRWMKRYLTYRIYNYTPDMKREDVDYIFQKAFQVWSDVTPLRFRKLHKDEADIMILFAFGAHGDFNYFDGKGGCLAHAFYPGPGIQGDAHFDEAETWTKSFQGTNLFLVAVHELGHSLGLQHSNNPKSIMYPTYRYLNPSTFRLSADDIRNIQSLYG

## CNC(=O)[C@H](Cc1c[nH]c2ccccc12)NC(=O)[C@@H](CC(=O)NO)CC(C)C [GM6001]
  Blocking of TND124 labeling by pretreatment: completely blocked labeling

From paper PMC3722588 (Journal of the American Chemical Society, 2013)
